In the supplement of paper PMC8253809:

Tests used:
Assay in all cases: growth inhibition relative to DMSO (0) and positive control (1) (fraction); higher = more growth inhibition
HGGX6 [1] = system: HGGX6 (H3.3 G34R paediatric high-grade glioma line)
Experimental: (§1)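 Single-agent arm (compound 2 only) of the paxalisib / mirdametinib dose-matrix plates, 7 days, adherent 384-well. CellTiter-Glo RLU was normalised to fractional activity between DMSO (0) and the positive control (1).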

DIPGX7 [2] = system: DIPGX7 (H3.3 K27M diffuse intrinsic pontine glioma line)
Experimental: as §1

HGGX42 [3] = system: HGGX42 (H3.3 G34R paediatric high-grade glioma line)
Experimental: as §1

HABS [4] = system: HABS (astrocyte control)
Experimental: as §1

DIPGX37 [5] = system: DIPGX37 (H3.3 K27M diffuse intrinsic pontine glioma line)
Experimental: as §1

iASTRO [6] = system: iASTRO (astrocyte control)
Experimental: as §1

DIPGX29 [7] = system: DIPGX29 (H3.3 K27M diffuse intrinsic pontine glioma line)
Experimental: as §1

HGGX6 [8] = system: HGGX6; remark: listed apart in the source
Experimental: (§2)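 Single-agent arm (compound 1 only) of the paxalisib / mirdametinib dose-matrix plates, 7 days, adherent 384-well. CellTiter-Glo RLU was normalised to fractional activity between DMSO (0) and the positive control (1).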

DIPGX7 [9] = system: DIPGX7; remark: listed apart in the source
Experimental: as §2

HGGX42 [10] = system: HGGX42; remark: listed apart in the source
Experimental: as §2

HABS [11] = system: HABS; remark: listed apart in the source
Experimental: as §2

DIPGX37 [12] = system: DIPGX37; remark: listed apart in the source
Experimental: as §2

iASTRO [13] = system: iASTRO; remark: listed apart in the source
Experimental: as §2

DIPGX29 [14] = system: DIPGX29; remark: listed apart in the source
Experimental: as §2

O=C(NOC[C@H](O)CO)c1ccc(F)c(F)c1Nc1ccc(I)cc1F
growth inhibition
Conditions | 0.009766 µM | 0.01953 µM | 0.03906 µM | 0.07812 µM | 0.15625 µM | 0.3125 µM | 0.625 µM | 1.25 µM | 5 µM | 20 µM
DIPGX7 [2] | – | – | -0.134 | -0.0334 | -0.0318 | -0.00916 | 0.0291 | 0.0919 | 0.221 | 0.144
DIPGX7 [9] | 0.00514 | -0.0128 | -0.0429 | -0.0583 | -0.0706 | -0.0675 | -0.0189 | 0.069 | 0.226 | 0.169
DIPGX29 [7] | – | – | 0.0243 | 0.134 | 0.108 | 0.159 | 0.301 | 0.477 | 0.795 | 0.903
DIPGX29 [14] | 0.0664 | 0.079 | 0.113 | 0.122 | 0.121 | 0.185 | 0.301 | 0.44 | 0.787 | 0.903
DIPGX37 [5] | – | – | -0.168 | -0.0488 | 0.038 | 0.147 | 0.274 | 0.418 | 0.857 | 0.9777
DIPGX37 [12] | -0.0815 | -0.107 | -0.0915 | -0.0274 | 0.0635 | 0.18 | 0.339 | 0.511 | 0.9225 | 0.9749
HABS [4] | – | – | -0.334 | -0.268 | -0.258 | -0.201 | -0.0364 | 0.168 | 0.618 | 0.797
HABS [11] | -0.13 | -0.164 | -0.228 | -0.269 | -0.234 | -0.0414 | 0.126 | 0.275 | 0.665 | 0.853
HGGX6 [1] | – | – | -0.174 | -0.0709 | -0.0557 | 0.064 | 0.133 | 0.156 | 0.414 | 0.596
HGGX6 [8] | -0.059 | -0.035 | -0.0725 | -0.0513 | -0.0455 | 0.0143 | 0.0902 | 0.0994 | 0.353 | 0.581
HGGX42 [3] | – | – | -0.199 | -0.114 | -0.121 | -0.215 | -0.198 | -0.0799 | 0.284 | 0.494
HGGX42 [10] | -0.0885 | -0.0961 | -0.107 | -0.127 | -0.145 | -0.165 | -0.133 | -0.126 | 0.241 | 0.441
iASTRO [6] | – | – | 0.0464 | 0.0732 | 0.0675 | 0.0849 | 0.116 | 0.0295 | 0.0268 | 0.058
iASTRO [13] | 0.0411 | 0.0442 | 0.0806 | 0.0816 | 0.113 | 0.124 | 0.173 | 0.119 | 0.0668 | 0.0562

CC1(C)OCCn2c1nc1c(N3CCOCC3)nc(-c3cnc(N)nc3)nc12 [GDC0084]
growth inhibition
Conditions | 0.009766 µM | 0.01953 µM | 0.03906 µM | 0.07812 µM | 0.15625 µM | 0.3125 µM | 0.625 µM | 1.25 µM | 5 µM | 20 µM
DIPGX7 [2] | – | – | 0.051 | 0.197 | 0.446 | 0.658 | 0.787 | 0.8579 | 0.9157 | 0.9671
DIPGX7 [9] | 0.0627 | 0.0708 | 0.104 | 0.186 | 0.381 | 0.622 | 0.771 | 0.8548 | 0.9176 | 0.977
DIPGX29 [7] | – | – | 0.0637 | 0.169 | 0.232 | 0.295 | 0.423 | 0.603 | 0.87 | 0.9389
DIPGX29 [14] | 0.073 | 0.102 | 0.178 | 0.216 | 0.266 | 0.357 | 0.491 | 0.595 | 0.8914 | 0.9212
DIPGX37 [5] | – | – | -0.00546 | 0.192 | 0.323 | 0.499 | 0.598 | 0.756 | 0.9558 | 0.99839
DIPGX37 [12] | -0.0429 | -0.0173 | 0.0381 | 0.138 | 0.304 | 0.453 | 0.566 | 0.71 | 0.9509 | 0.9986
HABS [4] | – | – | -0.0282 | 0.105 | 0.153 | 0.193 | 0.29 | 0.463 | 0.807 | 0.9834
HABS [11] | 0.075 | 0.0784 | 0.0871 | 0.118 | 0.171 | 0.208 | 0.326 | 0.489 | 0.807 | 0.9807
HGGX6 [1] | – | – | -0.045 | 0.0144 | 0.106 | 0.211 | 0.329 | 0.486 | 0.741 | 0.872
HGGX6 [8] | -0.0247 | -0.0158 | 0.0132 | 0.0493 | 0.125 | 0.232 | 0.359 | 0.507 | 0.758 | 0.869
HGGX42 [3] | – | – | 0.112 | 0.274 | 0.471 | 0.516 | 0.673 | 0.782 | 0.8721 | 0.898
HGGX42 [10] | 0.0532 | 0.0705 | 0.164 | 0.226 | 0.378 | 0.528 | 0.685 | 0.777 | 0.885 | 0.913
iASTRO [6] | – | – | 0.0361 | 0.0247 | 0.0269 | -0.0092 | -0.0383 | 0.0569 | 0.631 | 0.726
iASTRO [13] | 0.019 | 0.0114 | 0.00198 | 0.00243 | 0.00554 | -0.0144 | -0.0681 | -0.0251 | 0.577 | 0.706
